# Article PMC10561253, “2-NBDG Uptake in Gossypium hirsutum in vitro ovules: exploring tissue-specific accumulation and its impact on hexokinase-mediated glycolysis regulation” (Frontiers in Plant Science, 2023)
# Tested on: T1, GhHxk9
# T1 construct: codon-optimized synthetic gene, E. coli BL21(DE3), pET-28-14His-bdSumo, tag cut off by bdSENP1, tagless wild-type; 51 kDa; printed residues: L398-K404 TLKDGEK, S132-R141 SEGLHFSPDR
# Test: coupled assay with E. coli glucose-6-phosphate dehydrogenase, absorbance at […] nm
# Format: biochemical, Gossypium hirsutum
# Details: 1 mM ATP, 10 mM MgCl2, 1 mM NADP+, 100 mM Tris pH 7.5, 30 °C; read-out: apparent Km
smiles,measurement,value
OC[C@H]1OC(O)[C@H](O)[C@@H](O)[C@@H]1O (stereo partly drawn) [D-glucose],Km,37 ± 19.8 µM
